Experimental data: ChEMBL document CHEMBL5376000, “One-Pot Synthesis of Cereblon Proteolysis Targeting Chimeras via Photoinduced C(sp2)-C(sp3) Cross Coupling and Amide Formation for Proteolysis Targeting Chimera Library Synthesis” (J Med Chem, 2023)
In brackets after ≈: the same amount, converted by molar mass.

What was measured:
[1] = Aqueous solubility of the compound at 125 ug/ml measured after 24 hrs at pH 4.5 by LC-UV analysis; format: physicochemical; details: for solubility: buffer, pH 4.5, 24 h, dose 125 µg/ml; for solubility at 24 h: aqueous medium, pH 4.5, dose 125 µg/ml
[2] = Aqueous solubility of the compound at 125 ug/ml measured after 24 hrs at pH 6.8 by LC-UV analysis; format: physicochemical; details: for solubility: buffer, pH 6.8, 24 h, dose 125 µg/ml; for solubility at 24 h: aqueous medium, pH 6.8, dose 125 µg/ml
[3] = Metabolic stability of the compound in human liver microsomes at 1 umol/L by HPLC-MS/MS analysis; format: ADME, Microsome; details: dose 1 µmol/L, read-out: Stability
[4] = Metabolic stability of the compound in rat liver microsomes at 1 umol/L by HPLC-MS/MS analysis; format: ADME, Microsome; details: dose 1 µmol/L, read-out: Stability
[5] = Metabolic stability of the compound in mouse liver microsomes at 1 umol/L by HPLC-MS/MS analysis; format: ADME, Microsome; details: dose 1 µmol/L, read-out: Stability
[6] = Stability of the compound in 1:1 acetonitrile/water at 125 ug/ml measured after 24 hrs by LC-UV analysis; format: physicochemical; details: buffer, at 125 µg/mL

solubility [1] | solubility [2] | remaining at 1 µM [3] | remaining at 1 µM [4] | remaining at 1 µM [5] | solubility at 24 h [1] | solubility at 24 h [2] | Stability [6] | SMILES
> 191 µM | > 178 µM | 54% | < 23% | 27% | – | – | – | Cc1sc2c(c1C)C(c1ccc(Cl)cc1)=N[C@@H](CC(=O)NCCCCCN1CCC(c3ccc4c(c3)CN(C3CCC(=O)NC3=O)C4=O)CC1)c1nnc(C)n1-2 (stereo partly specified)
– | < 1 µM | > 88% | 66% | 83% | 3 µg/mL (≈ 3.61 µM) | – | – | Cc1sc2c(c1C)C(c1ccc(Cl)cc1)=N[C@@H](CC(=O)NCCCCCCNc1ccc(Cc3ccc4c(c3)CN(C3CCC(=O)NC3=O)C4=O)cc1)c1nnc(C)n1-2 (stereo partly specified)
– | < 1 µM | > 88% | 58% | 76% | 6 µg/mL (≈ 7.34 µM) | – | – | Cc1sc2c(c1C)C(c1ccc(Cl)cc1)=N[C@@H](CC(=O)NCCCCCNc1ccc(Cc3ccc4c(c3)CN(C3CCC(=O)NC3=O)C4=O)cc1)c1nnc(C)n1-2 (stereo partly specified)
< 1 µM | < 1 µM | 37% | 64% | 25% | – | – | – | Cc1sc2c(c1C)C(c1ccc(Cl)cc1)=N[C@@H](CC(=O)Nc1ccc(Cc3ccc4c(c3)CN(C3CCC(=O)NC3=O)C4=O)cc1)c1nnc(C)n1-2 (stereo partly specified)
– | – | > 88% | 48% | 70% | 14 µg/mL (≈ 17.7 µM) | 4 µg/mL (≈ 5.07 µM) | – | Cc1sc2c(c1C)C(c1ccc(Cl)cc1)=N[C@@H](CC(=O)NCCCNc1ccc(Cc3ccc4c(c3)CN(C3CCC(=O)NC3=O)C4=O)cc1)c1nnc(C)n1-2 (stereo partly specified)
> 185 µM | > 175 µM | 34% | < 23% | 27% | – | – | – | Cc1sc2c(c1C)C(c1ccc(Cl)cc1)=N[C@@H](CC(=O)NCCCN1CCC(c3ccc4c(c3)CN(C3CCC(=O)NC3=O)C4=O)CC1)c1nnc(C)n1-2 (stereo partly specified)
> 190 µM | – | 56% | 33% | 44% | – | 161 µg/mL (≈ 196 µM) | – | Cc1sc2c(c1C)C(c1ccc(Cl)cc1)=N[C@@H](CC(=O)NCCN1CCC3(CCC(c4ccc5c(c4)CN(C4CCC(=O)NC4=O)C5=O)CC3)CC1)c1nnc(C)n1-2 (stereo partly specified)
– | – | 86% | 42% | 55% | 3 µg/mL (≈ 3.87 µM) | 1 µg/mL (≈ 1.29 µM) | – | Cc1sc2c(c1C)C(c1ccc(Cl)cc1)=N[C@@H](CC(=O)NCCNc1ccc(Cc3ccc4c(c3)CN(C3CCC(=O)NC3=O)C4=O)cc1)c1nnc(C)n1-2 (stereo partly specified)
> 188 µM | > 174 µM | 41% | < 23% | 25% | – | – | Unstable | Cc1sc2c(c1C)C(c1ccc(Cl)cc1)=N[C@@H](CC(=O)NCCN1CC(N3CCC(c4ccc5c(c4)CN(C4CCC(=O)NC4=O)C5=O)CC3)C1)c1nnc(C)n1-2 (stereo partly specified)
> 197 µM | > 182 µM | 53% | < 23% | < 24% | – | – | – | Cc1sc2c(c1C)C(c1ccc(Cl)cc1)=N[C@@H](CC(=O)NCCCCCCN1CCC(c3ccc4c(c3)CN(C3CCC(=O)NC3=O)C4=O)CC1)c1nnc(C)n1-2 (stereo partly specified)
> 189 µM | > 175 µM | 66% | < 23% | < 24% | – | – | – | Cc1sc2c(c1C)C(c1ccc(Cl)cc1)=N[C@@H](CC(=O)NCCCCN1CCC(c3ccc4c(c3)CN(C3CCC(=O)NC3=O)C4=O)CC1)c1nnc(C)n1-2 (stereo partly specified)
– | < 1 µM | > 88% | 62% | 77% | 4 µg/mL (≈ 4.98 µM) | – | – | Cc1sc2c(c1C)C(c1ccc(Cl)cc1)=N[C@@H](CC(=O)NCCCCNc1ccc(Cc3ccc4c(c3)CN(C3CCC(=O)NC3=O)C4=O)cc1)c1nnc(C)n1-2 (stereo partly specified)
> 190 µM | – | 60% | < 23% | 33% | – | 101 µg/mL (≈ 127 µM) | – | Cc1sc2c(c1C)C(c1ccc(Cl)cc1)=N[C@@H](CC(=O)NCCN1CC3(CCC(c4ccc5c(c4)CN(C4CCC(=O)NC4=O)C5=O)CC3)C1)c1nnc(C)n1-2 (stereo partly specified)
> 177 µM | > 162 µM | 68% | 40% | 25% | – | – | – | Cc1sc2c(c1C)C(c1ccc(Cl)cc1)=N[C@@H](CC(=O)NCCN1CCC(c3ccc4c(c3)CN(C3CCC(=O)NC3=O)C4=O)CC1)c1nnc(C)n1-2 (stereo partly specified)

SMILES | solubility [1] | solubility [2] | remaining at 1 µM [3] | remaining at 1 µM [4] | remaining at 1 µM [5] | solubility at 24 h [1] | solubility at 24 h [2] | Stability [6]
Cc1sc2c(c1C)C(c1ccc(Cl)cc1)=N[C@@H](CC(=O)N1CCC(c3ccc4c(c3)CN(C3CCC(=O)NC3=O)C4=O)CC1)c1nnc(C)n1-2 (stereo partly specified) | – | – | 67% | 34% | 51% | 36 µg/mL (≈ 50.7 µM) | 26 µg/mL (≈ 36.6 µM) | –
